{"source": "paper PMC11494455", "about": "(Nature chemical biology, 2022)", "molecular_target": "THP4.1 biosensor (Salmonella typhimurium, UniProt Q8ZR43)", "sequence (Q8ZR43 whole entry)": "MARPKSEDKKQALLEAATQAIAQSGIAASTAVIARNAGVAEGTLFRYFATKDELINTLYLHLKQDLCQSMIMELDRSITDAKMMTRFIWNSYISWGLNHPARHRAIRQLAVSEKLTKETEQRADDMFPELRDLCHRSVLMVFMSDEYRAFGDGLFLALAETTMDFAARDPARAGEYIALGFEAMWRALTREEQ", "test": "Dose response and ligand response of the THP4.1 biosensor", "format": "cell-based", "conditions": "pThpR reporter"}
{"molecule": "COc1ccc(C[C@@H]2NCCc3cc(OC)c(O)cc32)cc1O", "note": "[norreticuline]", "values": [{"measurement": "responsiveness of THP4.1", "result": "somewhat responsive"}]}
